Test results taken from patent US6469141B1, “D1-like dopamine receptor activity modifying protein” (Medical College of Georgia Research Institute Inc., priority 1998, dated 2002).

How the values were obtained:
[1] = system: endogenous P2Y purinergic receptors; assay: Fura-2 Ca++ imaging, P2Y receptor-stimulated Ca++i release in D1 HEK293 cells; type: cell-based, human
Procedure: Drugs were prepared in HBS and manually applied.
Changes in Ca^++i levels were measured using ratiofluorometric imaging following bath application of ligand. Application of DA or 10:M […] produced no detectable response in untransfected D1 HEK293 cells, or cells expressing either EGFP or EGFP-Calcyon. In vivo, DA is considered primarily to be a neuromodulator. Therefore, to test whether Calcyon plays a role in the D1 receptor's ability to modulate other stimuli, we applied agonists of endogenous GPCRs prior to stimulating D1 receptors. […].

protein kinase C (PKC) = assay: 32P-orthophosphate in vivo labeling and GFP mab immunoprecipitation of EGFP-Calcyon; type: cell-based, human; conditions: 100 nM PMA, 0.5 h
Procedure: Approximately 40 h after transfection, pEGFP or pEGFP-Calcyon transfected D1 HEK293 cells were washed and placed in HBS (phosphate-free media) for 1.5 h prior to addition of [^32P] orthophosphate (135 μCi/ml). 2 h later, cells were treated with 100 nM PMA (Phorbol 12-Myristate 13-Acetate) in HBS for 0.5 h at 37°. Cells were then washed once in cold PBS and solubilized in mild lysis solution (Cytosignal, Irvine, Calif.) containing protease inhibitor cocktail (Boehringer Manheim) and phosphatase inhibitors, 50 μM NaF and 5 μM EGTA. Lysates were centrifuged for 5 min at 14,000 rpm and the supernatant was incubated at RT. for 1 h with mouse anti-GFP mab (Clontech, Palo Alto, Calif.) (diluted 1:100), followed by 0.02 volume of protein A/G agarose slurry for 30 min. The resin was washed twice with mild lysis solution, and adsorbed proteins eluted in SDS PAGE loading buffer (Laemmli, U.K., Nature 227:680-5 (1970)). Samples were analyzed by SDS-PAGE, using a 15% gel (Bio-Rad). The gel was dried and visualized using a Phosphorimager SF (Molecular Dynamics). […]
The Calcyon sequence contains two consensus protein kinase C (PKC) phosphorylation sites within its predicted cytoplasmic domain. […] GFP mab immunoprecipated a ^32P-labeled protein from pEGFP-Calcyon transfected cells with size equal to that detected by Calcyon antibodies. […]

hD1 receptors [2] = target: T1, hD1 receptors (Homo sapiens, UniProt P21728); assay: cAMP assay in transfected D1 HEK293 cells; type: cell-based
T1 construct: pLXSN (Clontech) plasmid containing full-length human D1 (Zhou et al., Nature 347:76-80 (1990)); expressed in transfected cells
T1 sequence (P21728 whole entry): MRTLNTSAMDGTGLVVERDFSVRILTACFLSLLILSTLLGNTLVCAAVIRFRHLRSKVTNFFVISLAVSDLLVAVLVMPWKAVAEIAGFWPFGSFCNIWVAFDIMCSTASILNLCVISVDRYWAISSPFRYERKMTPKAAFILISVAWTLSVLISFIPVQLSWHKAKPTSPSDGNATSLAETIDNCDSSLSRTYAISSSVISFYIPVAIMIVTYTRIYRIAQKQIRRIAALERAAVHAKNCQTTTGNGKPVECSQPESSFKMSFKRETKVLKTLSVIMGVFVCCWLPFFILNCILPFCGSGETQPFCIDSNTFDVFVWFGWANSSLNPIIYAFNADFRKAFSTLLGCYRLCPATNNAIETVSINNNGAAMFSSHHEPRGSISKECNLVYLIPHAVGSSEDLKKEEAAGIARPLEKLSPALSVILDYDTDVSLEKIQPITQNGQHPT
Procedure: Following centrifugation to pellet proteins, cAMP levels in supernatant were determined by Direct cAMP Enzyme Immunoassay Kit (Assay Designs, Inc.) according to the supplier's protocol. […] Results (pmol cAMP/mg protein) are reported as average of three independent trans fection experiments.
It was determined whether Calcyon influenced D1 receptor coupling to the cAMP second messenger system in D1 HEK293 cells transfcctcd with expression plasmids encoding either enhanced green fluorescent protein (EGFP), or Calcyon tagged at its N-terminus by EGFP.
(§1) pEGFP-Calcyon was created by inserting a 0.9 kb Eco RI-Xho I fragment encoding full-length Calcyon into pEGFP-C3 (Clontech). pEGFP-C3 and pEGFP-Calcyon plasmid DNAs were transiently transfected into HEK293 and D1 HEK293 cell lines using Effectene™ (Qiagen) according to manufacturer's recommendations. 2.5×10^5 cells were seeded in 6-well plates, and transfected with 0.4:g plasmid DNA/well for Ca^++ imaging, cAMP, and immunoprecipitation assays.

hD1 receptors [3] = target: T1, hD1 receptors; assay: Fura-2 Ca++ imaging of D1 receptor-stimulated Ca++i release in D1 HEK293 cells; type: cell-based; conditions: for effect of PKC inhibitor on SKF81297-induced Ca++ mobilization: EGFP-Calcyon expressing D1 HEK293 cells, HCl
Procedure: For Ca^++ imaging, cells were rinsed with HBS (150 mM NaCl, 10 mM NaHEPES, 10 mM glucose, 2.5 mM KCI, 4 mM CaCl2 and 2 mM MgCl2, pH 7.4) and then loaded with 5 μM Fura-2 AM (Molecular Probes) in HBS at RT. After 20 min, cells were washed three times with HBS. Assays were performed at RT in 1.5 ml of HBS. Drugs were prepared in HBS and manually applied. […] Images were collected with a CCD camera connected to a Silicon Graphics workstation, and analyzed with Inovision-Ratiotool 4.3.5. Transfected cells were identified by illumination at 490 nm, and selected as areas for analysis. […] Fluorescence emission at 510 nm was monitored for each excitation wavelength via the CCD camera at 10 s intervals. Average pixel intensities within 6-8 selected areas (each area corresponded to single transfected cell) for both wavelengths at each time point were digitized and stored on the computer.
Changes in Ca^++i levels were measured using ratiofluorometric imaging following bath application of ligand. […] In vivo, DA is considered primarily to be a neuromodulator. Therefore, to test whether Calcyon plays a role in the D1 receptor's ability to modulate other stimuli, we applied agonists of endogenous GPCRs prior to stimulating D1 receptors.
as §1

[4] = target: T2, GSTD1 (C-terminal 81 residues of hD1 receptor) (Homo sapiens, UniProt P21728); assay: S-agarose pull-down assay with GSTD1 fusion protein; type: binding; conditions: immunoblot with D1 receptor antibodies
T2 construct: C-terminal 81 amino acids of the hD1 receptor (residues 365-446); made in house; host or cells: S-Calcyon: BL21(DE3) E. coli
T2 sequence (P21728 365-446): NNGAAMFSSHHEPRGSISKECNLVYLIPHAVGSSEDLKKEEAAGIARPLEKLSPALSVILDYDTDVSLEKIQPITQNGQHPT
T2 sequence (Q9NYX4 93-217 partner): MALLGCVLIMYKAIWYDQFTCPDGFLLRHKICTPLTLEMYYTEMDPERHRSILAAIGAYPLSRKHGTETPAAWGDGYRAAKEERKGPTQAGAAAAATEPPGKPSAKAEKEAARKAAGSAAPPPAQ
Excerpt: For pull-down assays, a 550 bp Nco I-Bgl II fragment from pACT-Calcyon was subcloned into pET30a (Novagen, Madison, Wis.) to produce the S-Calcyon fusion protein containing residues 93-217 of the predicted Calcyon protein as well as an N-terminal tag composed of the 15 residue S peptide of ribonuclease S (Richards, F. M., et al., The Enzymes. ed.: Boyer, P. D., Academic Press, N.Y., pp. 647-806 (1971)). The S-β-galactosidase fusion protein was composed of bacterial β-galactosidase protein tagged at its N-terminus with the S peptide. Fusion proteins were induced in BL2I(DE3) E. coli with IPTG, and coupled to S-agarose resin (Novagen, Madison, Wis.) by incubating soluble fractions of bacterial lysates with resin for 1 h at RT Following incubation, unbound proteins were eliminated by washing the resin three times in 50 volumes of 25 mM HEPES (pH 7.4), 50 mM NaCl. Interaction assays were performed with GSTD1 purified as described (Bergson, C., et al., J. Neurosci. 15:7821-36 (1995)) or solubilized lysates of D1 HEK293 cells in 25 mM HEPES (pH 7.4), 50 mM NaCl, 10% glycerol, 1% bovine serum albumin containing 0.5% NP-40. Peptidel 421-435 ([…]) (SEQ ID No. 3) and Peptide2 ([…]) (SEQ ID No. 4) were synthesized using an Applied Biosystems 430A Peptide Synthesizer using the FastMoc procedures and reagents supplied by Perkin-Elmer, Applied Biosystems division. […]

D1 receptor = D1 receptor (Homo sapiens, UniProt P21728); assay: D1 receptor response to dopamine in presence of P24; conditions: effect of P24
D1 receptor, sequence (P21728 whole entry): as the sequence (P21728 whole entry) above

D1 DA receptors = target: T3, D1 DA receptors (Homo sapiens, UniProt P21728); assay: co-immunoprecipitation with GFP mab from transfected D1-HEK293 cells; type: binding
T3 construct: pLXSN (Clontech) plasmid containing full-length human D1 (Zhou et al., Nature 347:76-80 (1990)); expressed in transfected cells; host or cells: D1-HEK293 cells, transiently transfected with pEGFP-P24
T3 sequence (P21728 whole entry): as the sequence (P21728 whole entry) above
Excerpt: A series of experiments were then undertaken to functionally characterize the interaction between P24 and D1 receptor proteins. D1-HEK293 cells, a HEK293 cell line that expresses hD1 receptors, and pEGFP-P24 expression plasmid were used for these studies. pEGFP-P24 encodes P24 protein tagged at its N-terminus by enhanced green fluorescent protein (EGFP). The N-terminal EGFP tag allowed testing to determine whether P24 directly associates with D1 DA receptors when coexpressed in mammalian cells in a “pull-down” assay. D1 receptors co-immunoprecipitated with EGFP-P24 fusion protein transiently expressed in transfected D1-HEK293 cells, and were “pulled down” by GFP mab.

Nc1ncnc2c1ncn2[C@@H]1O[C@H](COP(=O)(O)OP(=O)(O)OP(=O)(O)O)[C@@H](O)[C@H]1O [ATP]
Ca++i response ([1]; D1 HEK293 cells): produced a rise in Ca^++i
duration of P2Y receptor Ca++i response ([1]; EGFP expressing cells): 300 to 400 s
duration of P2Y receptor Ca++i response ([1]; EGFP-Calcyon expressing cells, following application of BisI): 300 to 400 s

CCCCCCCCCCCCCC(=O)O[C@@H]1[C@@H](C)[C@@]2(O)[C@@H](C=C(CO)C[C@]3(O)C(=O)C(C)=C[C@@H]23)[C@@H]2C(C)(C)[C@]12OC(C)=O [PMA, phorbol 12-myristate 13-acetate]
32P label incorporated into immunoprecipitated EGFP-Calcyon, treated vs untreated cells (protein kinase C (PKC)): approximately five times more label incorporated

CN(C)CCCn1cc(C2=C(c3c[nH]c4ccccc34)C(=O)NC2=O)c2ccccc21.Cl [bisindolylmaleimide I HCl]
cAMP levels stimulated by ATP and SKF81297, BisI-treated compared to untreated cells (hD1 receptors [2]): similar
effect of PKC inhibitor on SKF81297-induced Ca++ mobilization (hD1 receptors [3]): considerably attenuated
effect of PKC inhibitor on SKF81297-induced Ca++ mobilization (hD1 receptors [3]; listed as bisindolylmalemide): inhibits Calcyon-enabled D1 stimulated Cai^++ release
effect of PKC inhibitor on D1 receptor-stimulated Ca++i release (hD1 receptors [3]; EGFP-Calcyon expressing cells treated with carbachol): reduced D1 receptor-stimulated Ca^++i release

SVILDYDTDVSLEKI (listed as Homo sapiens) [Pep421-435]
block of interaction between GSTD1 and S-Calcyon by peptide [4]: prevented detection of the immunoreactive GSTD1 band

B1: Calcyon: 217 residue single transmembrane protein encoded by K 37 cDNA (SEQ ID No. 1) that interacts with the hD1 DA receptor (protein)
chain: MVKLGCSFSGKPGKDPGDQDGAAMDSVPLISPLDISQLQPPLPDQVVIKTQTEYQLSSPDQQNFPDLEGQRLNCSHPEEGRRLPTARMIAFAMALLGCVLIMYKAIWYDQFTCPDGFLLRHKICTPLTLEMYYTEMDPERHRSILAAIGAYPLSRKHGTETPAAWGDGYRAAKEERKGPTQAGAAAAATEPPGKPSAKAEKEAARKAAGSAAPPPAQ
modifications: D1-Like dopamine receptor activity modifying protein
effect of Calcyon expression on D1 receptor-stimulated cAMP (hD1 receptors [2]; DA-stimulated cAMP, EGFP vs EGFP-Calcyon cells): does not alter D1 receptor activation of cAMP-dependent signaling pathways
threshold of D1 receptor response to dopamine (D1 receptor): lowers the threshold of D1 receptor response to dopamine (DA) by an order of magnitude
effect of Calcyon expression on D1 receptor-stimulated Ca++i mobilization (hD1 receptors [3]; EGFP-Calcyon vs EGFP expressing cells, D1 agonist after ATP): enhance the ability of D1 receptors to mobilize Ca^++i

B2: EGFP-P24: P24 protein tagged at its N-terminus by enhanced green fluorescent protein (protein)
chain: MVKLGCSFSGKPGKDPGDQDGAAMDSVPLISPLDISQLQPPLPDQVVIKTQTEYQLSSPDQQNFPDLEGQRLNCSHPEEGRRLPTARMIAFAMALLGCVLIMYKAIWYDQFTCPDGFLLRHKICTPLTLEMYYTEMDPERHRSILAAIGAYPLSRKHGTETPAAWGDGYRAAKEERKGPTQAGAAAAATEPPGKPSAKAEKEAARKAAGSAAPPPAQ
modifications: left off: large carriers
co-immunoprecipitation of D1 receptors (D1 DA receptors): co-immunoprecipitated
